One assay concerns the target T1, 5HT1D receptor (Bos taurus, UniProt F1MGM3).
T1 construct: from tissue
The assay can be described thus: 5HT1D receptor binding affinity (procedure of Peroutka et al.).

The next assay deals with T2, 5HT1A receptor (Rattus norvegicus, UniProt P19327).
T2 sequence (P19327 1-422): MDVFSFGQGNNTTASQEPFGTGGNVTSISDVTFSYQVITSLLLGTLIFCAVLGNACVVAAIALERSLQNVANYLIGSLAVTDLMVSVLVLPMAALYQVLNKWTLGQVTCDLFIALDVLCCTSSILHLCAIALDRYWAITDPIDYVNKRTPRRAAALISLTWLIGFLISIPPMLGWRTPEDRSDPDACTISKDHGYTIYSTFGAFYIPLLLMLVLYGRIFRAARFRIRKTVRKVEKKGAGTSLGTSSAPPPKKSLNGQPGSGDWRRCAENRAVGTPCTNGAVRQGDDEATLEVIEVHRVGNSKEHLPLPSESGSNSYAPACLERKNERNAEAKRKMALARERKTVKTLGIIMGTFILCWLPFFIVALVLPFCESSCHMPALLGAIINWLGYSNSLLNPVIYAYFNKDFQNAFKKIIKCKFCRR
The assay can be described thus: 5HT1A receptor binding affinity (procedure of Gozlan et al.). The procedure: In the following examples, the compounds binding affinity for both the 5HT1A receptor and 5HT1D receptors is reported. The compounds affinity for the 5HT1D site was determined by the binding procedure of Peroutka et al as reported in European Journal of Pharmacology, Vol. 163 at pages 133-166 (1989). The compounds affinity for the 5HT1A receptor was determined by the procedure of Gozlan et al., as reported in Nature, Volume 305, at pages 140-142 (1983). Where multiple determinations of the binding affinity have been performed, the average is given followed by the number of determinations in parentheses. Also, the PA2 value for the saphenous vein preparation as described in this application is given, followed by the intrinsic (agonist) activity in parentheses, expressed as a percentage. [drawing 10] […]

[1] abbreviates: average of multiple determinations where number in parentheses is given, read-out: IC50 (5HT1D Binding Affinity).
Where [2] appears, read: average of multiple determinations where number in parentheses is given, read-out: IC50 (5HT1A Binding Affinity).

Where a name gives a salt, the structure may show the parent alone. Read-outs that look alike come from different tables or passages of the source. Where only a bound is given, the exact number is not on record here.

T1 sequence (F1MGM3 1-403): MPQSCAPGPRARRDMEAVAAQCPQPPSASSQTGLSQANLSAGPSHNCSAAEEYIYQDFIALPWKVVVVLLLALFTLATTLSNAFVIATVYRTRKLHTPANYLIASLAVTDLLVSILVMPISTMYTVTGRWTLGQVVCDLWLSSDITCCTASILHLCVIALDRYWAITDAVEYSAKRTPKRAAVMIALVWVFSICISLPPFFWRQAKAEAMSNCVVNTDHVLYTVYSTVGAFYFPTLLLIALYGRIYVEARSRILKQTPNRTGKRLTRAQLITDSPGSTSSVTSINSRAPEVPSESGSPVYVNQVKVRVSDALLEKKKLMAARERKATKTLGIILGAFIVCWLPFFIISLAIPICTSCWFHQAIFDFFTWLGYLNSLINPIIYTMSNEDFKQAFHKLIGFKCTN
Procedure for 5HT1D receptor: The compounds affinity for the 5HT1D site was determined by the binding procedure of Peroutka et al as reported in European Journal of Pharmacology, Vol. 163 at pages 133-166 (1989). […] Where multiple determinations of the binding affinity have been performed, the average is given followed by the number of determinations in parentheses.

As for `CCOC(=O)c1cc2c(N3CCN(Cc4ccccc4)CC3)cccc2s1` [Example 1, ethyl-4-[4-(phenylmethyl)-1-piperazinyl]benzo[b]thiophene-2-carboxylate monohydrochloride], the IC50 on 5HT1D receptor (setting [1]) and on 5HT1A receptor (setting [2]) was over 1000 nM in each case.

Turning to `OCc1cc2c(N3CCN(Cc4ccccc4)CC3)cccc2s1` [Example 2, 4-[4-(phenylmethyl)-1-piperazinyl]-benzo[b]thiophene-2-methanol monohydrochloride], the figures for the IC50 at 5HT1D receptor (setting [1]) and at 5HT1A receptor (setting [2]) were 760 nM and 35 nM, respectively.

Consider `N#Cc1cc2c(N3CCN(Cc4ccccc4)CC3)cccc2s1` [Example 3, 4-[4-(phenylmethyl)-1-piperazinyl]-benzo[b]thiophene-2-nitrile monohydrochloride], for which the IC50 at 5HT1D receptor (setting [1]) was over 1000 nM; at 5HT1A receptor (setting [2]), 180 nM.

`NC(=O)c1cc2c(N3CCN(Cc4ccccc4)CC3)cccc2s1` [Example 4, 4-[4-(phenylmethyl)-1-piperazinyl]-benzo[b]thiophene-2-carboxamide monohydrochloride]: the values for the IC50 on 5HT1D receptor (setting [1]) and on 5HT1A receptor (setting [2]) were 52 nM and 1.6 nM, respectively.

For the compound `CCOC(=O)c1cc2c(N3CCNCC3)cccc2s1` [Example 5, ethyl 4-(1-piperazinyl)-benzo[b]thiophene-2-carboxylate monohydrochloride], the IC50 was determined as 47 nM on 5HT1D receptor and 89 nM on 5HT1A receptor.

Take `CCOC(=O)c1cc2c(N3CCN(CCc4ccccc4)CC3)cccc2s1` [Example 6, ethyl-4-[4-(2-phenylethyl)-1-piperazinyl]-benzo[b]thiophene-2-carboxylate monohydrochloride]: the figures for the half-maximal inhibitory concentration (IC50) on 5HT1D receptor (setting [1]) and on 5HT1A receptor (setting [2]) were 108 nM and 37 nM, respectively.

`N#Cc1cc2c(N3CCN(CCc4ccccc4)CC3)cccc2s1` [Example 8, 4-[4-(2-phenylethy-1-piperazinyl]-benzo[b]thiophene-2-nitrilemonohydrochloride]: the IC50 was 18 nM on 5HT1D receptor and 4 nM on 5HT1A receptor.

For the compound `CCOC(=O)c1cc2c(N3CCN(CCCc4ccccc4)CC3)cccc2s1` [Example 14, ethyl-4-[4-(3-phenylpropyl)-1-piperazinyl]-benzo[b]thiophene-2-carboxylatemonohydrochloride], the IC50 at 5HT1D receptor (setting [1]) is 551 nM; at 5HT1A receptor (setting [2]) it was 239 nM.

On to `N#Cc1cc2c(N3CCN(CCCc4ccccc4)CC3)cccc2s1` [Example 16, 4-[4-(3-phenylpropyl)-1-piperazinyl]-benzo[b]thiophene-2-nitrile monohydrochloride], for which the IC50 is 173 nM at 5HT1D receptor (setting [1]) and 21 nM at 5HT1A receptor (setting [2]).

`OCc1cc2c(N3CCN(CCc4ccc(Cl)cc4)CC3)cccc2s1` [Example 19, 4-[4-[2-(4-chlorophenyl)ethyl]-1-piperazinyl]-benzo[b]thiophene-2-methanolmonohydrochloride]: the IC50 on 5HT1D receptor came to 10 nM; at 5HT1A receptor, 2 nM.

For the compound `OCc1cc2c(N3CCN(CCc4ccc(F)cc4)CC3)cccc2s1` [Example 23, 4-[4-[2-(4-fluorophenyl)ethyl]-1-piperazinyl]-benzo[b]thiophene-2-methanolmonohydrochloride], the IC50 on 5HT1D receptor and on 5HT1A receptor was 3 nM each time.

As to `NC(=O)c1cc2c(N3CCN(CCc4ccc(F)cc4)CC3)cccc2s1` [Example 25, 4-[4-[2-(4-fluorophenyl)ethyl]-piperazinyl]-benzo[b]-thiophene-2-carboxamide monohydrochloride], the IC50 at 5HT1D receptor came to 6 nM; at 5HT1A receptor, 0.8 nM.

With `Cc1ccc(CCN2CCN(c3cccc4sc(CO)cc34)CC2)cc1` [Example 27, 4-[4-[2-(4-methylphenyl)-ethyl]-1-piperazinyl]-benzo[b]thiophene-2-methanol monohydrochloride], the IC50 on 5HT1D receptor was 1 nM; on 5HT1A receptor, 3 nM.

For `Cc1ccc(CCN2CCN(c3cccc4sc(C#N)cc34)CC2)cc1` [Example 28, 4-[4-[2-(4-methylphenyl)ethyl]-1-piperazinyl]-benzo[b]thiophene-2-nitrile monohydrochloride], the IC50 at 5HT1D receptor is 56 nM; on 5HT1A receptor it was 4 nM.

`CCOC(=O)c1cc2c(N3CCN(CCc4ccc(OC)cc4)CC3)cccc2s1` [Example 30, ethyl-4-[4-[2-(4-methoxyphenyl)ethyl]-1-pierazinyl]-benzo-[b]thiophene-2-carboxylate monohydrochloride]: the IC50 on 5HT1D receptor (setting [1]) was found to be 73 nM; on 5HT1A receptor (setting [2]) it was 74 nM.

As to `COc1ccc(CCN2CCN(c3cccc4sc(CO)cc34)CC2)cc1` [Example 31, 4-[4-[2-(4-methoxyphenyl)ethyl]-1-piperazinyl]-benzo[b]thiophene-2-methanol monohydrochloride], the IC50 on 5HT1D receptor worked out at 2 nM; at 5HT1A receptor, 1 nM.

With `Cc1c(CO)sc2cccc(N3CCN(CCc4ccccc4)CC3)c12` [Example 33, 4-[4-(2,phenylethyl)-1-piperazinyl]-benzo[b]-thiophene-3-methyl-2-methanol monhydrochloride 0.5 hydrate], the IC50 at 5HT1D receptor turned out to be 31 nM; at 5HT1A receptor it was 9 nM.

As to `CCCN1CCN(c2cccc3sc(CO)cc23)CC1` [Example 35, 4-[(4-propyl)-1-piperazinyl]benzo[b]thiophene-2-methanol hydrochloride], the IC50 at 5HT1D receptor (setting [1]) worked out at 66 nM; on 5HT1A receptor (setting [2]), 34 nM.

Compound `CN1CCN(c2cccc3sc(CO)cc23)CC1` [Example 39, 4-[4-methyl-1-piperazinyl]-benzo[b]thiophene-2-methanol hydrochloride] came in with an IC50 at 5HT1D receptor of 16 nM.

Regarding `CC(O)c1cc2c(N3CCN(CCc4ccccc4)CC3)cccc2s1` (stereo not drawn) [Example 43, 1-[4-(4-phenethyl-piperazin-1-yl)-benzo[b]thiophen-2-yl]ethanol hydrochloride], the IC50 stood at 3 nM on 5HT1D receptor and 0.5 nM at 5HT1A receptor.

`COCc1cc2c(N3CCNCC3)cccc2s1` [Example 45, 4-(1-piperazinyl)-benzo[b]thiophene-2-methoxymethyl hydrochloride hemihydrate] showed an IC50 on 5HT1D receptor of 4 nM.

As for `CNC(=O)c1cc2c(N3CCNCC3)cccc2s1` [Example 49, 4-(1-piperazinyl)benzol[b]-thiophene-2-(N-methyl)carboxamide dihydrochloride hydrate], the IC50 on 5HT1D receptor turned out to be 8.4 nM.

In the case of `O=[N+]([O-])c1ccc(CCN2CCN(c3cccc4sc(CO)cc34)CC2)cc1` [Example 50, 4-[4-[2-(4-nitrophenyl)ethyl]-1-piperazinyl]-benzo[b]thiophene-2-methanol hydrochloride], the figures for the IC50 at 5HT1D receptor (setting [1]) and on 5HT1A receptor (setting [2]) were 6 nM and 1 nM, respectively.

Turning to `NCc1cc2c(N3CCN(CCc4ccccc4)CC3)cccc2s1` [Example 55, 4-[4-(2-phenylethyl)-1-piperazinyl]-benzo[b]thiophene-2-methanamine dihydrochloride], the IC50 at 5HT1D receptor is 12 nM; at 5HT1A receptor, 3 nM.

The values are drawn from patent US5436246A, “Serotonin receptor agents” (priority 1993, dated 1995).
